Laboratory results published in patent publication US12162839B1, “4,5-bis(4-bromophenyl)-2-(4-bromophenyl)-1-hexyl-1H-imidazole as an antimicrobial compound” (KING FAISAL UNIVERSITY, priority 2023, dated 2024).

What was measured:
Format in all cases: cell-based
Settings in all cases: after 10, 20, 40 and 60 minutes at all dilutions 1:100, 1:200, 1:400, 1:800
Staphylococcus aureus = experiment: Antimicrobial testing by agar dilution, Staphylococcus aureus
Description: (§1) The antimicrobial properties of the 4,5-bis(4-bromophenyl)-2-(4-bromophenyl)-1-hexyl-1H-imidazole (5) were studied by the method of agar dilution. Test solutions of each compound were prepared in concentration of 1% using dimethylformamide as a solvent then they are diluted in physiological solution to obtain the final experimental dilutions 1:100, 1:200, 1:400, 1:800. The effect of these substances were compared with furacillin in a controllable study. The testing microbes used were gram positive bacteria Staphylococcus aureus, gram negative bacteria Escherichia coli, Pseudomonas aeruginosa and Candida albicans fungi were taken. The experiments used for this survey were meat-pentonlu agar (EPA) for cultivation of bacteria and Saburo environment for fungi. Each experiment used 1 ml of test solution on each plate 500 min. Add 2 drops of emulsified with microbes feel. All experimental samples were taken from the agar after 10, 20, 40, 60 minutes in the environment on the basis of Patrk planted. Bacteria were cultivated at a temperature of 37° C. for 1 day and the mushroom was kept in a thermostat for […] at a temperature of 28° C. in the. Then results were checked.

Candida albicans = experiment: Antimicrobial testing by agar dilution, Candida albicans
Description: as §1

Pseudomonas aeruginosa = experiment: Antimicrobial testing by agar dilution, Pseudomonas aeruginosa
Description: as §1

Escherichia coli = experiment: Antimicrobial testing by agar dilution, Escherichia coli
Description: as §1

Measured: inhibition activity (in words)

CCCCCCn1c(-c2ccc(Br)cc2)nc(-c2ccc(Br)cc2)c1-c1ccc(Br)cc1 [4,5-bis(4-bromophenyl)-2-(4-bromophenyl)-1-hexyl-1H-imidazole]
highest inhibition activity: all assays above
